In assay [1] the test system is tumor growth. Particulars: mouse models; cited from earlier work. The text has this:
(§1) Reader proteins, which specifically recognize methylation modifications at specific sites, are crucial for the biological functions of lysine methylation (Figure 1A).^[ [11], [12], [13], [14] ^] For example, BPTF is a reader of H3K4me3 that is in the NURF complex for RNA polymerase II activities.^[ [15] ^] CBX1 is a reader of H3K9me3 that promotes liquid‐liquid phase separation for the formation of heterochromatin. As a result, the local genes in chromatin are condensed and not accessible to transcription.^[ [16], [17], [18] ^] In addition, readers also play important roles in tumorigenesis. F ...

Assay [2] concerns PRC2. Conditions: cited from earlier work.
Excerpt: as §1

For assay [3], the system named is SPIN2B. Briefly: Western blot: inhibition of crosslinking of probe 12 by MS31. The format is biochemical, human. Particulars: 2.5 mM probe 12, 10 µM SPIN2B, 200 µM MS31, 0.5% DMSO, UV 30 min, streptavidin-HRP blot; Figure 5D. How it is done: BPTF, CBX1, and SPIN1 were expressed and purified as previously reported.^[ [54], [59] ^] Full‐length SPIN2B (residues 1–258) from human was cloned into the pET‐28a vector with an N‐terminal 6×His‐SUMO‐tag. It was over‐expressed in Rosetta (DE3) Escherichia coli cells by induction of 0.25 mM isopropyl β‐D‐thiogalactoside (IPTG) at 16 °C overnight when OD600 reached 0.6–0.8 in the LB medium. The harvested cells were suspended in lysis buffer (20 mM Tris, 150 mM NaCl, 0.2 mM PMSF, pH 7.5) and lysed by sonication; then, the cell lysate was centrifuged to remove the insoluble cell debris. The clarified supernatant was loaded on nickel resin equilibrated in lysis buffer. Afterward, the protein‐bound resin was washed sequentially with lysis buffer, high salt buffer (20 mM Tris, 500 mM NaCl, pH 7.5), and 20 mM imidazole buffer (20 mM Tris, 150 mM NaCl, 20 mM imidazole, pH 7.5). The target proteins were eluted by 200 mM imidazole buffer (20 mM Tris, 150 mM NaCl, 200 mM imidazole, pH 7.5), followed by the solution exchanged to storage buffer (20 mM Tris, 150 mM NaCl, pH 7.5). The product was concentrated, snap‐frozen, and stored at −80°C. […]
For SPIN1 and SPIN2B found in the volcano plot, 5 sets of samples were designed, respectively. […] Finally, the membranes were washed with 1×TBST buffer three times, and the protein bands were detected by enhanced chemiluminescence reagent.

Assay [4] relates to HeLa cell nuclei proteins. Briefly: Proteomic experiment for inhibitor evaluation: probe 12 with MS31 competition. The format is cell-based, Homo sapiens. How it is done:
HeLa cells (1.8 × 10^7) were harvested, washed with pre‐cooled phosphate buffer saline (PBS), and lysed in hypotonic buffer (10 mM Tris, 15 mM NaCl, 1.5 mM MgCl2, 0.2 mM PMSF, pH 7.5) on ice with regular inversion for 10–15 min. After centrifugation at 200 g for 5 min at 4°C, the pellet was resuspended in hypotonic buffer and homogenized with three strokes of a loose pestle Dounce homogenizer. The intact nuclei were washed with a hypotonic buffer and collected by centrifugation. Then, the nuclei were resuspended in crosslink buffer (100 mM HEPES, 150 mM KCl, 1.5 mM MgCl2, 0.2 mM PMSF, pH 7.5) and divided into two groups (Group A and Group B), each of which contained three parallel samples. The general probe was added to Group A. The same amount of the general probe and extra competing peptides was added to Group B. These samples were transferred to a 24‐well plate, incubated on ice for 10 min, and irradiated under 313 nm UV for 20 min on ice. Next, the nuclei were washed with crosslinking buffer three times. […]
Label‐free quantification was performed with Proteome Discoverer 2.5, which was used for database searches against the Homo sapiens (Human) proteome database retrieved from UniProtKB (accession UP000005640). […]

Assay [5] relates to SPIN2B. Conditions: cited from earlier work. The source says: (§2) To verify this approach, we selected MS31, a potent and selective fragment‐like inhibitor that primarily targets the H3K4me3 reader SPIN1 by binding to its Tudor2 domain.^[ [64], [65], [66] ^] […] We used peptide 12, which replaced desthiobiotin of peptide 5 with biotin to enhance binding affinity to streptavidin beads, for a prot ...

Assay [6] relates to SPIN4. Particulars: cited from earlier work.
Excerpt: as §2

For assay [7], the system named is broad panel of other epigenetic readers and writers. Conditions: cited from earlier work.
Excerpt: as §2

In assay [8] the target is SPIN1. Particulars: cited from earlier work.
Excerpt: as §2

The test system of assay [9] is reader proteins (BPTF, CBX1). Description: In vitro crosslinking validation of general competition peptide. The format is biochemical. Conditions: 2.5 mM general probe, 7.5 mM peptide 13, 10 µM reader, pH 7.5, UV 30 min; Figure 6B. The procedure:
Probes were added to the crosslinking buffer (100 mM HEPES, pH 7.5), followed by the addition of reader proteins. The mixture was transferred to 96‐well plates and incubated on ice for 10 min. After UV irradiation on ice at an energy of 720 mJ cm^−2, the samples were analyzed by UPLC‐Q‐TOF‐MS. The analytical yield was calculated based on the mass peak areas as previously reported.^[ [55] ^] The yield is calculated as the peak area of the desired product divided by the sum of the peak areas of the crosslinking products and the starting material, multiplied by 100%. For crosslinking readers with general probes: The mixture of 5 mM general probes and 10 µM reader proteins (BPTF, CBX1, CDYL2) was crosslinked by the General procedure for crosslinking for 30 min. For competition assays, the mixture of 2.5 mM general probes, 100 µM H3K4me3 (1‐15) or H3K9me3 (1‐15) peptide or 7.5 mM […]me3GG, 10 µM reader proteins (BPTF, CBX1) was crosslinked by the General procedure for crosslinking for 20 min (H3K4me3 or H3K9me3 for competition) or 30 min ([…]me3GG for competition). For Kinetics of reader crosslinking: The mixture of 0.625/1.25/2.5/5/10 mM general probe and 10 µM reader proteins was crosslinked by the General procedure for crosslinking for 20 min. […]

Square brackets hold non-standard residues; d marks the D form. Ends that are not written are not given here. Lys(Me3) = C[N+](C)(C)CCCC[C@H](N)C(=O)O

Take `CS(=O)(=O)c1ccc(-c2cnc(NCc3ccco3)n3cnnc23)cc1` [EED226]: the “Tumor growth suppression (in words)” value in [1] is recorded as “suppresses tumor growth in mouse models”. For the same molecule, the “PRC2 activity inhibition (in words)” value in assay [2] is “effectively inhibits PRC2 activity”.
For `COc1c(CN)cc(CN)cc1OCCCN1Cc2ccccc2C1` [MS31], the “Inhibition of crosslinking between SPIN2B and probe 12” value in [3] is recorded as “can be inhibited by MS31”. Besides, in assay [4] (2.5 mM probe 12 vs + 200 µM MS31, 313 nm UV 20 min, Log2(Fold Change) ≥0.5, p ≤ 0.05, n = 3), the “Proteins significantly enriched (MS31 competition)” value is on record as 21 proteins. For the same molecule, the “Known MS31 targets identified among enriched proteins” value in assay [4] (2.5 mM probe 12 vs + 200 µM MS31, Log2(Fold Change) ≥0.5, p ≤ 0.05, n = 3) is “the expected primary target SPIN1 was identified, along with two other SPIN family members, SPIN4 and SPIN2B”. For the same molecule, the “Binding affinity (in words)” value in [5] and in assay [6] was “moderate binding affinity” throughout. Besides, the “Selectivity (in words)” value in assay [7] is “high selectivity over a broad panel of other epigenetic readers and writers”. Moreover, the Kd in assay [8] was 91 nM.
RKGGGGGG[Lys(Me3)]GG [peptide 13]: the “Competition of general probe crosslinking by peptide 13” value in assay [9] was “three equivalents of the peptide were sufficient to achieve complete competition”.
